Assay results from ChEMBL document CHEMBL1152048, “N-(1-phenyl-2-benzimidazolyl)-N-phenylurea derivatives as potent in hibitors of acylcoa:cholesterol acyltransferase (ACAT)” (Bioorg Med Chem Lett, 1995).

What was measured:
[1] = target: T1, Acyl-CoA:cholesterol acyltransferase (Oryctolagus cuniculus) (UniProt Q95214); test: In vitro inhibitory activity towards acyl CoA cholesterol acyltransferase (ACAT) of cholesterol-fed rabbits by the displacement of [14C]oleolyl-CoA at 1 uM
T1 sequence (whole entry): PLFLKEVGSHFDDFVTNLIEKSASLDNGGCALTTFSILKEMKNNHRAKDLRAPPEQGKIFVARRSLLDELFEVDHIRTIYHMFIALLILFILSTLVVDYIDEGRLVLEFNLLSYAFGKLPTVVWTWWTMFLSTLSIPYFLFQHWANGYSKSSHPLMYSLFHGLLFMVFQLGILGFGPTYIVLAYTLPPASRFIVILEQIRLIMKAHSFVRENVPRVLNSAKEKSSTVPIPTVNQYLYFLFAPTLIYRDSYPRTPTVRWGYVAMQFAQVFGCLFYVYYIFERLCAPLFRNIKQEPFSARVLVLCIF

[2] = target: T2, Acyl-CoA:cholesterol acyltransferase (Oryctolagus cuniculus, UniProt Q95214); test: In vitro inhibitory activity towards acyl CoA cholesterol acyltransferase (ACAT) of cholesterol-fed rabbits by the displacement of [14C]oleolyl-CoA
T2 sequence (Q95214 whole entry): T1 sequence (whole entry)

Cricetinae gen. sp. = test: Compound was tested in vivo at a dose of 10 (mg/kg) for percent inhibition in increased serum total cholesterol in golden hamsters fed with a diet containing 2% cholesterol; format: functional, Mesocricetus auratus

Row | Compound | inhibition [1] [%] | IC50 [2] [nM] | Reduction (Cricetinae gen. sp.) [%]
1 | Cc1cc(C)c(NC(=O)Nc2nc3ccccc3n2-c2c(Cl)cccc2Cl)c(C)c1 | 24 |  | 
2 | CC(C)c1cccc(C(C)C)c1NC(=O)Nc1nc2ccccc2n1-c1ncccc1Cl |  | 100 | 
3 | CC(C)c1cccc(C(C)C)c1NC(=O)Nc1nc2ccccc2n1-c1ccc(Cl)cc1 |  | 280 | 
4 | CC(C)c1cccc(C(C)C)c1NC(=O)Nc1nc2ccccc2n1-c1cc(C(=O)O)ccc1Cl | 2 |  | 
5 | CC(C)c1cccc(C(C)C)c1NC(=O)Nc1nc2ccccc2n1-c1ccccc1O |  | 200 | 
6 | Cc1ncccc1-n1c(NC(=O)Nc2c(C(C)C)cccc2C(C)C)nc2ccccc21 |  | 100 | 
7 | Cc1cccc(C)c1NC(=O)Nc1nc2ccccc2n1-c1ccccc1Cl |  | 420 | 
8 | O=C(Nc1ccc(F)cc1F)Nc1nc2ccccc2n1-c1ccccc1Cl | 27 |  | 

Continued, in another order:

Row | inhibition [1] [%] | IC50 [2] [nM] | Compound | Reduction (Cricetinae gen. sp.) [%]
9 |  | 66 | CC(C)c1cccc(C(C)C)c1NC(=O)Nc1nc2ccccc2n1-c1ccccc1 | 
10 |  | 20 | COc1ccccc1-n1c(NC(=O)Nc2c(C(C)C)cccc2C(C)C)nc2ccccc21 | 
11 |  | 41 | CC(C)c1cccc(C(C)C)c1NC(=O)Nc1nc2ccccc2n1-c1ccccc1N(C)C | 102
12 |  | 11 | CC(C)c1cccc(C(C)C)c1NC(=O)Nc1nc2ccccc2n1-c1c(Cl)cccc1Cl | 74
13 |  | 22 | CC(C)c1cccc(C(C)C)c1NC(=O)Nc1nc2ccccc2n1-c1ccccc1Br | 37
14 |  | 18 | CC(C)c1cccc(C(C)C)c1NC(=O)Nc1nc2ccccc2n1-c1ccccc1Cl | 80
15 |  | 20 | CC(C)c1cccc(C(C)C)c1NC(=O)Nc1nc2ccccc2n1-c1cccc(Cl)c1 | 
16 |  | 33 | CC(C)c1cccc(C(C)C)c1NC(=O)Nc1nc2cccnc2n1-c1ccccc1Cl | 76
17 |  | 19 | Cc1ccccc1-n1c(NC(=O)Nc2c(C(C)C)cccc2C(C)C)nc2ccccc21 | 
18 |  | 72 | CC(C)c1cccc(C(C)C)c1NC(=O)Nc1nc2ccccc2n1-c1ccccc1C(F)(F)F | 
